This assay has as its target T1, rh-proNGF (Homo sapiens, UniProt P01138).
T1 construct: gene NGF; proNGF without signal peptide; homodimer
Description: ITC, global fit of two titrations (SEDPHAT). The assay is classed as binding. The settings on record: read-out: Best-fit value. From the text: ITC, global fit of two titrations (SEDPHAT) on rh-proNGF

T1 sequence (P01138 19-241): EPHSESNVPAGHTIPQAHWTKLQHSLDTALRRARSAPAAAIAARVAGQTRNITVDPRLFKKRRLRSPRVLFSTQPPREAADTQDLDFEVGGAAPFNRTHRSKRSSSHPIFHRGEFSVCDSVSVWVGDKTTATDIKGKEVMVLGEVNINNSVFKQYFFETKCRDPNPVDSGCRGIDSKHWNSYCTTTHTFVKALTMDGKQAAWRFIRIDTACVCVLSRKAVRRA

With `Nc1ncnc2c1ncn2[C@@H]1O[C@H](COP(=O)(O)OP(=O)(O)OP(=O)(O)O)[C@@H](O)[C@H]1O` [ATP], the Kd is 39.7 µM.

The values above are taken from PMC9878617, “Distinct conformational changes occur within the intrinsically unstructured pro‐domain of pro‐Nerve Growth Factor in the presence of ATP and Mg^2+” (Protein Science : A Publication of the Protein Society, 2023).
